Source: US4450269A, “Mono-5-substituted-3-chloro-4H-1,2,6-thiadiazin-4-one antifungal agents” (FMC Corporation, priority 1980, dated 1984)
Like-named read-outs stand apart in the source and are kept apart here.

How the values were obtained:
Pyricularia oryzae = format: cell-based; settings: PO, 48 hours
Pythium ultimum = assay: Mycelial growth test; format: cell-based; settings: PU; for inhibition at 5 ppm / inhibition at 10 ppm / inhibition at 20 ppm / inhibition at 40 ppm: Globisporangium ultimum, 72 h, read-out: Percent Fungus Growth Inhibition; for Percent Fungus Growth Inhibition: 72 hours

Compound | Spore Germination Rating (Pyricularia oryzae; 1.0 ppm) | Spore Germination Rating (Pyricularia oryzae; 2.5 ppm) | Spore Germination Rating (Pyricularia oryzae; 10 ppm) | Spore Germination Rating (Pyricularia oryzae; 40 ppm) | inhibition at 5 ppm (Pythium ultimum; 5 ppm) | inhibition at 10 ppm (Pythium ultimum; 10 ppm) | inhibition at 20 ppm (Pythium ultimum; 20 ppm) | inhibition at 40 ppm (Pythium ultimum; 40 ppm) | Percent Fungus Growth Inhibition (Pythium ultimum; 5 ppm) | Percent Fungus Growth Inhibition (Pythium ultimum; 10 ppm) | Percent Fungus Growth Inhibition (Pythium ultimum; 20 ppm) | Percent Fungus Growth Inhibition (Pythium ultimum; 40 ppm)
N#CCc1ccc(Oc2nsnc(Cl)c2=O)cc1 [Compound 46, 3-chloro-5-[(4-cyanomethyl)-phenoxy]4H--1,2,6-thiadiazin-4-one] | 0 (0-10) | 0 (0-10) | 0 (0-10) | 0 (0-10) | 0% | 40% | 87% | 100% | – | – | – | –
O=C(OCc1ccccc1)Oc1ccc(Oc2nsnc(Cl)c2=O)cc1 [Compound 38, 3-chloro-5-[4-(phenylmethoxycarbonyloxy)phenoxyl]-4H-1,2,6-thiadiazin-4-one] | 4 (80-100) | 3 (60-80) | 2 (40-60) | 2 (40-60) | 0% | 0% | 0% | 0% | – | – | – | –
O=c1c(Cl)nsnc1Oc1ccc([N+](=O)[O-])cc1Cl [Compound 53, 3-chloro-5-(2-chloro-4-nitrophenoxy)-4H--1,2,6-thiadiazin-4-one] | 2 (40-60) | 0 (0-10) | 0 (0-10) | 0 (0-10) | 20% | 82% | 100% | 100% | – | – | – | –
Cc1cccc(Oc2nsnc(Cl)c2=O)c1 [Compound 21, 3-chloro-5-(3-methylphenoxy)-4H--1,2,6-thiadiazin-4-one] | 4 (80-100) | 0 (0-10) | 0 (0-10) | 0 (0-10) | 27% | 33% | 100% | 100% | – | – | – | –
O=c1c(Cl)nsnc1Oc1cccc(C(F)(F)F)c1 [Compound 44, 3-chloro-5-[(3-trifluoromethyl)phenoxy]-4H--1,2,6-thiadiazin-4-one] | 1 (10-40) | 0 (0-10) | 0 (0-10) | 0 (0-10) | 100% | 100% | 100% | 100% | – | – | – | –
O=c1c(Cl)nsnc1Oc1ccc([N+](=O)[O-])cc1 [Compound 9, 3-chloro-5-(4-nitrophenoxy)-4H--1,2,6-thiadiazin-4-one] | 0 (0-10) | 0 (0-10) | 0 (0-10) | 0 (0-10) | 0% | 80% | 71% | 100% | – | – | – | –
O=c1c(Cl)nsnc1Oc1ccccc1Cl [Compound 14, 3-chloro-5-(2-chlorophenoxy)-4H--1,2,6-thiadiazin-4-one] | 3 (60-80) | 0 (0-10) | 0 (0-10) | 0 (0-10) | 31% | 53% | 100% | 100% | – | – | – | –
3-chloro-5-(bromophenoxy)-4H-1,2,6-thiadiazin-4-one [Compound 33] | 2 (40-60) | 0 (0-10) | 0 (0-10) | 0 (0-10) | – | – | – | – | 69% | 87% | 96% | 100%
CC(=O)Nc1ccccc1Oc1nsnc(Cl)c1=O [Compound 43, 3-[(2-acetylamino)-phenoxy]-5-chloro-4H--1,2,6-thiadiazin-4-one] | 4 (80-100) | 4 (80-100) | 4 (80-100) | 1 (10-40) | 0% | 0% | 0% | 0% | – | – | – | –
COc1ccc(Oc2nsnc(Cl)c2=O)cc1 [Compound 5, 3-chloro-5-(4-methoxyphenoxy)4H--1,2,6-thiadiazin-4-one] | 4 (80-100) | 1 (10-40) | 0 (0-10) | 0 (0-10) | 0% | 42% | 76% | 100% | – | – | – | –
COc1cc(Cl)cc(Oc2nsnc(Cl)c2=O)c1 [Compound 52, 3-chloro-5-[(3-chloro-5-methoxy)phenoxy]-4H--1,2,6-thiadiazin-4-one] | 4 (80-100) | 0 (0-10) | 0 (0-10) | 0 (0-10) | 4% | 60% | 100% | 100% | – | – | – | –
O=c1c(Cl)nsnc1Oc1cccc(Cl)c1 [Compound 13, 3-chloro-5-(3-chlorophenoxy)-4H--1,2,6-thiadiazin-4-one] | 3 (60-80) | 0 (0-10) | 0 (0-10) | 0 (0-10) | 31% | 73% | 89% | 100% | – | – | – | –
Cc1cccc(C)c1Oc1nsnc(Cl)c1=O [Compound 24, 3-chloro-5-(2,6-dimethylphenoxy)-4H--1,2,6-thiadiazin-4-one] | 3 (60-80) | 0 (0-10) | 0 (0-10) | 0 (0-10) | 0% | 47% | 64% | 100% | – | – | – | –
